In the supplement of paper PMC10307832:

Assays:
Assay in all cases: relative viability (nuclei count vs DMSO), 5 days (fraction); higher = more cells survive
[1] = compound: Cc1ccc2nc(NCCN)c3ncc(C)n3c2c1 + CC(=O)c1c(C)c2cnc(Nc3ccc(N4CCNCC4)cn3)nc2n(C2CCCC2)c1=O [Palbociclib] (partner 0.5 µM)
Procedure, shortened: (§1)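 Dosing by pin tool came one day after lung cancer cell lines were seeded in 1536-well plates, using either one drug or a fixed anchor-drug dose plus five library-drug doses (not always all listed) in √10 steps. After 5 days, nuclei were counted on 4× images. Relative viability is treated-well nuclei count divided by vehicle-well nuclei count, and values are medians of duplicate plates.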

[2] = compound: Cc1ccc2nc(NCCN)c3ncc(C)n3c2c1 + Nc1nc2[nH]cc(CCc3ccc(C(=O)N[C@@H](CCC(=O)O)C(=O)O)cc3)c2c(=O)[nH]1 [Pemetrexed] (partner 0.2 µM)
Procedure, shortened: as §1

Salubrinal + Alpelisib = compound: O=C(/C=C/c1ccccc1)NC(NC(=S)Nc1cccc2cccnc12)C(Cl)(Cl)Cl [Salubrinal] + Cc1nc(NC(=O)N2CCC[C@H]2C(N)=O)sc1-c1ccnc(C(C)(C)C(F)(F)F)c1 [Alpelisib] (partner 2 µM)
Procedure, shortened: as §1

Salubrinal + Decitabine = compound: O=C(/C=C/c1ccccc1)NC(NC(=S)Nc1cccc2cccnc12)C(Cl)(Cl)Cl [Salubrinal] + Nc1ncn([C@H]2C[C@H](O)[C@@H](CO)O2)c(=O)n1 [Decitabine] (partner 2 µM)
Procedure, shortened: as §1

| Cell Line | relative viability ([1]; first compound 0.04 µM) | relative viability ([1]; first compound 0.1265 µM) | relative viability ([1]; first compound 0.4 µM) | relative viability ([1]; first compound 1.265 µM) | relative viability ([1]; first compound 4 µM) | relative viability ([2]; first compound 0.04 µM) | relative viability ([2]; first compound 0.1265 µM) | relative viability ([2]; first compound 0.4 µM) | relative viability ([2]; first compound 1.265 µM) | relative viability ([2]; first compound 4 µM) | relative viability (Salubrinal + Alpelisib; first compound 0.08 µM) | relative viability (Salubrinal + Alpelisib; first compound 0.253 µM) | relative viability (Salubrinal + Alpelisib; first compound 0.8 µM) | relative viability (Salubrinal + Alpelisib; first compound 2.53 µM) | relative viability (Salubrinal + Alpelisib; first compound 8 µM) | relative viability (Salubrinal + Decitabine; first compound 0.08 µM) | relative viability (Salubrinal + Decitabine; first compound 0.253 µM) | relative viability (Salubrinal + Decitabine; first compound 0.8 µM) | relative viability (Salubrinal + Decitabine; first compound 2.53 µM) | relative viability (Salubrinal + Decitabine; first compound 8 µM) |
| --- | --- | --- | --- | --- | --- | --- | --- | --- | --- | --- | --- | --- | --- | --- | --- | --- | --- | --- | --- | --- |
| COR-L 105 | 0.374 | 0.414 | 0.43 | 0.4 | 0.438 | 1.19 | 1.21 | 0.996 | 1.23 | 1.11 | 1.01 | 0.906 | 1.04 | 1.06 | 0.831 | 0.807 | 0.693 | 0.655 | 0.712 | 0.534 |
| RERF-LC-KJ | 0.969 | 1 | 1.14 | 1.08 | 0.881 | 0.489 | 0.474 | 0.435 | 0.485 | 0.518 | 0.912 | 0.824 | 0.925 | 0.813 | 0.698 | 0.834 | 0.605 | 0.792 | 0.697 | 0.598 |
| LXF-289 | 0.605 | 0.648 | 0.604 | 0.638 | 0.556 | 0.905 | 0.876 | 0.87 | 0.865 | 0.933 | 1.13 | 0.956 | 1.13 | 1.08 | 0.966 | 0.338 | 0.382 | 0.357 | 0.43 | 0.405 |
| PC-14 | 0.447 | 0.488 | 0.475 | 0.386 | 0.244 | 0.135 | 0.14 | 0.157 | 0.15 | 0.151 | 1.05 | 0.756 | 1.14 | 0.968 | 0.562 | 0.211 | 0.228 | 0.201 | 0.189 | 0.236 |
| NCI-H650 | 0.368 | 0.316 | 0.258 | 0.304 | 0.332 | 0.999 | 0.976 | 0.827 | 1.01 | 0.851 | 1.29 | 1.14 | 1.14 | 1.11 | 1.04 | 0.288 | 0.297 | 0.352 | 0.298 | 0.323 |
| NCI-H1666 | 0.664 | 0.675 | 0.598 | 0.611 | 0.665 | 0.965 | 0.817 | 0.84 | 0.736 | 0.795 | 0.985 | 0.791 | 0.923 | 1.01 | 0.993 | 0.741 | 0.726 | 0.788 | 0.712 | 0.895 |
| NCI-H2085 | 0.49 | 0.514 | 0.465 | 0.469 | 0.478 | 0.87 | 0.934 | 0.855 | 0.892 | 1 | 1.09 | 0.879 | 0.923 | 0.936 | 0.981 | 0.521 | 0.583 | 0.564 | 0.508 | 0.643 |
| NCI-H1734 | 0.319 | 0.367 | 0.369 | 0.319 | 0.254 | 0.438 | 0.395 | 0.413 | 0.48 | 0.496 | 0.721 | 0.695 | 0.833 | 0.737 | 0.749 | 0.573 | 0.51 | 0.527 | 0.474 | 0.477 |
| NCI-H2126 | 0.392 | 0.392 | 0.319 | 0.403 | 0.372 | 0.851 | 0.699 | 0.659 | 0.708 | 0.59 | 0.808 | 0.767 | 0.812 | 0.727 | 0.725 | 0.605 | 0.547 | 0.589 | 0.563 | 0.559 |
| EMC-BAC-2 | 0.55 | 0.536 | 0.509 | 0.521 | 0.486 | 0.463 | 0.43 | 0.4 | 0.448 | 0.496 | 0.802 | 0.709 | 0.786 | 0.82 | 0.702 | 0.992 | 0.879 | 1.01 | 0.991 | 1.05 |
| NCI-H1993 | 0.627 | 0.559 | 0.532 | 0.501 | 0.596 | 0.595 | 0.623 | 0.528 | 0.57 | 0.613 | 0.62 | 0.595 | 0.735 | 0.688 | 0.676 | 0.567 | 0.662 | 0.593 |  | 0.59 |
| NCI-H520 | 0.233 | 0.222 | 0.215 | 0.212 | 0.243 | 0.655 | 0.62 | 0.651 | 0.687 | 0.574 | 0.904 | 0.578 | 1.18 | 0.878 | 0.949 | 0.551 | 0.579 | 0.575 | 0.501 | 0.576 |
| NCI-H647 | 0.41 | 0.412 | 0.405 | 0.413 | 0.296 | 0.179 | 0.158 | 0.243 | 0.221 | 0.243 | 1.47 | 0.438 | 1.54 | 1.25 | 1.08 | 0.389 | 0.452 | 0.451 | 0.443 | 0.552 |
| NCI-H1792 | 0.694 | 0.649 | 0.652 | 0.562 | 0.625 | 1.33 | 0.774 |  | 0.801 | 0.618 | 0.8 |  | 0.646 | 0.676 | 0.611 | 0.608 |  | 0.741 | 0.49 | 0.405 |
| SK-LU-1 | 0.412 | 0.383 | 0.385 | 0.393 | 0.38 | 0.979 | 0.903 | 0.955 | 0.984 | 0.981 | 1.1 | 0.864 | 1.35 | 1.07 | 0.951 | 0.609 | 0.597 | 0.739 | 0.685 | 0.506 |
| NCI-H2009 | 0.238 | 0.202 | 0.245 | 0.275 | 0.295 | 1.02 | 0.985 | 0.966 | 0.951 | 0.926 | 1.16 | 1.1 | 1.19 | 1.16 | 1.07 | 0.414 | 0.396 | 0.426 | 0.384 | 0.384 |
| LOU-NH91 | 0.551 | 0.509 | 0.52 | 0.542 | 0.464 | 0.411 | 0.344 | 0.361 | 0.465 | 0.495 | 0.781 | 0.692 | 0.72 | 0.749 | 0.697 | 0.837 | 0.842 | 0.817 | 0.845 | 0.777 |
| NCI-H2405 | 0.557 | 0.511 | 0.518 | 0.522 | 0.508 | 1.17 | 1.01 | 1 | 0.905 | 0.798 | 0.8 | 0.845 | 0.711 | 0.79 | 0.831 | 0.726 | 0.726 | 0.754 | 0.757 | 0.729 |
| LCLC-97TM1 | 0.236 | 0.217 | 0.247 | 0.218 | 0.245 | 0.171 | 0.178 | 0.211 | 0.175 | 0.145 | 0.258 | 0.302 | 0.254 |  | 0.276 | 0.248 | 0.223 | 0.234 | 0.21 | 0.257 |
| H3255 | 0.329 | 0.298 | 0.312 | 0.327 | 0.317 | 0.573 | 0.568 | 0.536 | 0.557 | 0.525 | 0.913 | 0.676 | 0.762 | 0.693 | 0.769 | 0.703 | 0.649 | 0.774 | 0.591 | 0.558 |
| NCI-H2170 | 0.388 | 0.445 | 0.356 | 0.381 | 0.342 | 0.258 | 0.305 | 0.26 | 0.257 | 0.262 | 0.883 | 0.703 | 0.859 | 0.811 | 0.706 | 0.483 | 0.452 | 0.496 | 0.472 | 0.461 |
| NCI-H1437 | 0.3 | 0.315 | 0.296 | 0.248 | 0.287 | 0.304 | 0.312 | 0.332 | 0.296 | 0.35 | 1.12 | 0.782 | 1.15 | 0.94 | 0.969 | 0.549 | 0.502 | 0.523 | 0.564 | 0.612 |
| NCI-H358 | 0.122 | 0.121 | 0.123 | 0.145 | 0.131 | 0.185 | 0.165 | 0.166 | 0.178 | 0.192 | 1.03 | 0.676 | 0.886 | 0.792 | 0.675 | 0.24 | 0.219 | 0.234 | 0.188 | 0.202 |
| LU99A | 0.468 | 0.447 | 0.434 | 0.456 | 0.41 | 0.165 | 0.209 | 0.208 | 0.188 | 0.209 | 0.644 | 0.559 | 0.66 | 0.476 | 0.53 | 1.05 | 0.844 | 0.938 | 0.951 | 0.757 |
| SK-MES-1 | 0.341 | 0.298 | 0.351 | 0.341 | 0.326 | 1.04 | 0.903 | 0.9 | 1.05 | 0.92 | 1.01 | 0.888 | 1.09 | 0.992 | 0.664 | 0.405 | 0.359 | 0.365 | 0.356 | 0.495 |
| HCC-827 | 0.437 | 0.517 | 0.473 | 0.501 | 0.495 | 0.261 | 0.242 | 0.273 | 0.24 | 0.266 | 0.995 | 1.07 | 0.954 | 0.985 | 0.963 | 0.303 | 0.335 | 0.361 | 0.345 | 0.341 |
| LK-2 | 0.502 | 0.811 |  |  | 0.725 | 0.252 | 0.297 |  |  | 0.191 | 1.33 | 1.07 | 1.23 | 1.19 | 1.08 | 0.269 | 0.306 | 0.399 | 0.385 | 0.266 |
